The text below walks through data of PubChem BioAssay (NCI).

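Assay format: 96-well plates, 48-hour exposure. GI50 marks 50% less growth. TGI: concentration producing complete growth inhibition.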

Among the test systems are M19-MEL melanoma; DMS 273 small cell lung; DMS 114 small cell lung; HCT-15 colon; SR leukemia; XF 498 CNS; MDA-MB-435; HS 578T breast; MDA-MB-231 breast; PC-3 prostate.
Holding throughout (experiment): DTP human tumour cell line panel, 48 h

For `Cc1ccc(S(=O)(=O)Nc2cccc3c(=O)[nH]cnc23)cc1`, the total growth inhibition concentration (TGI) in the experiment on M19-MEL melanoma, with DMS 273 small cell lung, in the experiment on DMS 114 small cell lung, in the experiment on HCT-15 colon, with SR leukemia and in the experiment on XF 498 CNS was above 100 µM throughout.

Turning to `Cc1n(CC(C)C)c2c([n+]1C)C(=O)c1ccccc1C2=O`, the TGI is 0.216 µM with M19-MEL melanoma; 0.277 µM in the experiment on MDA-MB-435; 3.05 µM in the experiment with HS 578T breast; 0.786 µM in the experiment on DMS 273 small cell lung; below 0.0255 µM in the experiment on DMS 114 small cell lung; 4.39 µM with HCT-15 colon. Also, the TGI was 11.5 µM in the experiment on SR leukemia, 0.344 µM in the experiment with MDA-MB-231 breast, 1.46 µM in the experiment with XF 498 CNS and 0.337 µM in the experiment with PC-3 prostate.

In the case of `Cc1ccc2c(ccc(/C=C/c3ccc(O)c4ncccc34)[n+]2C)c1`, the TGI is 22.6 µM with M19-MEL melanoma; above 52.1 µM in the experiment on MDA-MB-435; above 100 µM in the experiment on HS 578T breast; 17.2 µM with DMS 273 small cell lung; 4.28 µM in the experiment on DMS 114 small cell lung; above 100 µM in the experiment with HCT-15 colon. For the same molecule, the TGI in the experiment with SR leukemia is above 35.7 µM; in the experiment with MDA-MB-231 breast, above 61.8 µM; with XF 498 CNS, 16.8 µM; in the experiment with PC-3 prostate it was above 49.8 µM.

For `COC1OC(CS(=O)(=O)O)C(O)C(O)C1O` (configuration not stated), the concentration for total growth inhibition (TGI) in the experiment with MDA-MB-435, in the experiment on HS 578T breast, with HCT-15 colon, in the experiment on SR leukemia and with PC-3 prostate was above 100 µM throughout.

Consider `CC1(C)[C@@H]2CC[C@]1(C)[C@H](OC(=O)CSC#N)C2`, for which the total growth inhibition concentration (TGI) in the experiment with MDA-MB-435, in the experiment with HS 578T breast, in the experiment on HCT-15 colon, with MDA-MB-231 breast and in the experiment with PC-3 prostate was above 100 µM throughout.

Consider `O=S(=O)(O)c1ccc(N=Nc2ccc3c(S(=O)(=O)O)cccc3c2O)c2ccccc12`, for which the TGI with MDA-MB-435, with HS 578T breast, with HCT-15 colon, in the experiment with MDA-MB-231 breast and in the experiment with PC-3 prostate was above 100 µM in each case.

As to `N#C[S-].[La+3].c1cnc2c(c1)ccc1cccnc12.c1cnc2c(c1)ccc1cccnc12.c1cnc2c(c1)ccc1cccnc12`, the GI50 in the experiment on M19-MEL melanoma was 0.688 µM; with DMS 114 small cell lung, 1.58 µM; in the experiment on XF 498 CNS it was 4.03 µM. The TGI in the experiment on M19-MEL melanoma amounted to 3.69 µM; in the experiment on DMS 114 small cell lung it was 5.45 µM; with SR leukemia, 8.8 µM; in the experiment with XF 498 CNS, 9.42 µM.

Take `O=C1C=C(C2OC(CO)C(O)C2O)C(=O)N1` (configuration not stated): the TGI with M19-MEL melanoma, with DMS 273 small cell lung, with DMS 114 small cell lung and with HCT-15 colon was above 100 µM each time.

Take `C=C1C(=O)OC2/C=C(\C(=O)O)CC/C=C(\C)CC(OC(=O)/C=C(\C)CC)C12` (configuration not stated): the TGI with M19-MEL melanoma was 29.1 µM; with DMS 273 small cell lung it was 34 µM; with DMS 114 small cell lung it was 30.2 µM; in the experiment with HCT-15 colon, 28.6 µM; in the experiment on SR leukemia, above 100 µM; with XF 498 CNS it was 32.5 µM.

As to `O=C(c1ccccc1)c1ccc2n[se]nc2c1`, the TGI is above 100 µM in the experiment with DMS 273 small cell lung, 60 µM with DMS 114 small cell lung and above 100 µM in the experiment with HCT-15 colon.

`CCCC(C)c1ccc(OCCCCCCN2CCNCC2)cc1` (configuration not stated): the GI50 with MDA-MB-435 is 1.7 µM; with HS 578T breast it was 1.87 µM; in the experiment on HCT-15 colon, 1.88 µM; in the experiment on SR leukemia it was 1.7 µM; in the experiment with MDA-MB-231 breast, 1.75 µM; with PC-3 prostate, 2.02 µM. Besides, the TGI turned out to be 3.22 µM in the experiment on MDA-MB-435; 4.74 µM in the experiment with HS 578T breast; 3.77 µM in the experiment with HCT-15 colon; 4.21 µM in the experiment on SR leukemia; 3.58 µM in the experiment with MDA-MB-231 breast; 4.94 µM in the experiment on PC-3 prostate.

Take `OC(CC1CCCCN1)c1ccc2c(c1)oc1ccccc12` (configuration not stated): the TGI in the experiment on MDA-MB-435, in the experiment with HS 578T breast, in the experiment on HCT-15 colon, with SR leukemia, in the experiment on MDA-MB-231 breast and in the experiment with PC-3 prostate was above 100 µM each time.

Regarding `CN(C)/C=C/C(=CC=[N+](C)C)/C=C/N(C)C`, the TGI with DMS 273 small cell lung, with SR leukemia and in the experiment on XF 498 CNS was above 100 µM throughout.

By TGI is commonly meant the concentration giving total growth inhibition. Read a low TGI as greater sensitivity of the cells. A word on the GI50: it is the concentration giving 50% growth inhibition.
